In a melting point compilation (Tetko et al.; mined from patent text by program, amines drawn as free bases though some values may be those of a salt) one finds melting point data, which are given here for 31 compounds.

Turning to `Cc1ccc(S(=O)(=O)OCCC2CCN(C(c3ccccc3)(c3ccccc3)c3ccccc3)CC2)cc1`, the melting point came to 176 °C.

On to `C#CCn1c(-c2cccnc2)c(C)c2ccccc21`, for which the melting point lay in the range of 104 to 105 °C.

In turn, `CCCCCCCCON1C(C)(C)CC(NC(=O)CCc2cc(-n3nc4ccccc4n3)c(O)c(C(C)(C)C)c2)CC1(C)C` returned a melting point of 153 to 159 °C.

In the case of `FC(F)(F)c1ccc(C=Cc2nc(CNc3ccc(CCCCn4ccnn4)cc3)co2)cc1`, the melting point was in the range of 113 to 115 °C.

In turn, `O=C(Cc1ccccc1)Nc1ccc2oc3c(c2c1)CCCC3` came in with a melting point of 180 to 181 °C.

For `COC(=O)C(=Cc1ccc(OC)c(OC)c1)C(C)=O`, the melting point fell in the range of 93 to 95 °C.

`CC1(C)OC(=C(C#N)C#N)C(C#N)=C1/C=C/c1ccc(N)cc1` registered a melting point of 360 °C.

The compound `COc1cc(Nc2ncc(C#N)c(-c3ccccc3)n2)cc(OC)c1OC` showed a melting point of 98 °C.

Compound `CCCCCCOc1ccc(-c2nc(-c3ccc(OCCCCCC)cc3O)nc(-c3ccc(OCCCCCC)cc3O)n2)c(O)c1` yielded a melting point of 125 to 127 °C.

As to `Cc1nc2ccc3c(c2o1)OC(CN1CC=C(c2c[nH]c4ccc(C#N)cc24)CC1)CO3` (stereo unspecified), the melting point turned out to be 119 °C.

`Cn1c(C(F)(F)F)cc(=O)n(-c2cc(OC3CC=CNC3=O)c(Cl)cc2F)c1=O` (stereo unspecified) returned a melting point of 91 °C.

For the compound `COc1ccc(/C(=C\C=C\C(=O)Oc2ccc([N+](=O)[O-])cc2)C2CC2)cc1`, the melting point was 111 to 112 °C.

Compound `CC=CCN1c2cc(Cl)ccc2NC(=O)[C@@H]1C` had a melting point of 87 to 88 °C.

Compound `CCN(C(C)=O)c1cccc(-c2ccn3ncc(C#N)c3n2)c1` had a melting point of 194 to 196 °C.

On to `CCOC(=O)COc1cccc(CN2C(=O)C3(COc4cc5c(cc43)CCO5)c3ccccc32)c1` (stereo unspecified), for which the melting point is 45 to 46 °C.

In turn, `NS(=O)(=O)c1ccc(-c2nc(C(F)(F)F)[nH]c2-c2ccc(F)cc2)cc1` had a melting point of 259 to 260 °C.

Take `O=C(c1ccc(O)c(Cc2ccc(=O)[nH]n2)c1)c1c(Cl)cc(Cl)cc1Cl`: the melting point was found to be 258 °C.

Take `N#Cc1cccc(C(=O)Nc2ccc(-n3nc(C(F)(F)F)cc3C(F)(F)F)nc2)c1`: the melting point is 206 to 208 °C.

In turn, `CCOc1cc2c(Nc3cc(OC)c(Cl)cc3Cl)c(C#N)cnc2cc1OCCC1CCN(C)CC1` displayed a melting point of 174 to 176 °C.

`CCOC(=O)c1cnc(SC)nc1Nc1ccc2cn[nH]c2c1` showed a melting point of 212 to 214 °C.

In the case of `CC(=O)OC1CCC2(C)C3CCC4(C)C(C(C)CCCC(C)(C)O)CCC4C3CCC2(O)C1` (stereo unspecified), the melting point lay within 180 to 182 °C.

With `CCOc1cnc(C(C)(C)OC(=O)Nc2ccc(-c3ncn(-c4ccc(OC(F)(F)F)cc4)n3)cc2)nc1`, the melting point was 168 to 171 °C.

`O=C(Oc1cccc2c(C(=O)c3ccc(F)cc3)c(-c3ccc(OCCN4CCCC4)cc3)sc12)c1ccc(F)cc1` had a melting point of 64 to 68 °C.

`CON(c1ccc([N+](=O)[O-])cc1Cl)S(=O)(=O)c1cccc([N+](=O)[O-])c1`: the melting point is 168 to 169 °C.

Compound `CC1(C)OC(c2ccc(S(C)(=O)=O)cc2)=C(c2cccc3ccccc23)C1=O` returned a melting point of 194 to 195 °C.

`N#Cc1nn(-c2c(Cl)cc(C(F)(F)F)cc2Cl)c(N)c1-c1ccc(Br)cc1` displayed a melting point of 242 to 244 °C.

`O=C(NCC12CC3CC(CC(C3)C1)C2)c1cc(CCCNCCCO)cnc1Cl` came in with a melting point of 105 to 107 °C.

The compound `Brc1ccc2c(c1)C1(c3ccccc3-c3ccccc31)c1cc(Br)ccc1-2` gave a melting point of 340 to 341 °C.

With `COc1cccc(CC(=O)O)c1OCCCc1cn(-c2ccc([N+](=O)[O-])cn2)nc1C(C)C`, the melting point lay in the range of 161 to 162 °C.

Compound `O=C1N=C(N2CCCCCCC2)SC1=Cc1cccc(-c2ccc(O)c(C34CC5CC(CC(C5)C3)C4)c2)c1` gave a melting point of 284 to 286 °C.

`CN1NN=C(NC(=O)c2cccc3cccnc23)N1` gave a melting point of 222 to 223 °C.

The term melting point denotes the temperature of the solid-liquid transition.
